Results from patent EP0349354A1, “Peptides PF10 to PF19 from a retro virus HIV, method for the synthesis of these peptides and their use, particularly in diagnostics” (INSTITUT PASTEUR, priority 1988, dated 1990).

Experiments:
[1] = system: anticorps anti-protéine F; assay: Western blot test on peptide spots with sera of HIV-1 infected patients; format: binding, humain; conditions: for réaction avec sérum 1545 1/200, 10µl: serum 1545 diluted 1/200, spot 10µl of peptide at 2 mg/ml
Procedure: Pour les besoins du test, les différents peptides PF16, PF19, PF13, PF17 utilisés sont dilués à une concentration de 2 mg/ml.
Sur une bande de papier BIORAD pour transblot, on dépose différents spots : 1µl, 2µl, 5µl, 10µl.
Après séchage on pratique un test Western Blot classique en utilisant comme anticorps des sérums de patients infectés par le virus HIV-1, positifs pour la protéine F, à des dilutions variant de 1/100 à 1/300.
Les peptides testés permettent d'aboutir aux résultats résumés dans le tableau 2 avec trois sérums différents anti-F ++ (++ signifiant une réaction plus marquée).

anticorps anti-nef = assay: ELISA for detection of anti-nef antibodies on coated peptides or nef; format: binding, humain; conditions: for intensité de l'immunoréactivité (OD), Serum 1: Serum 1, anti-nef positive; for intensité de l'immunoréactivité (OD), Serum 1 / intensité de l'immunoréactivité (OD), Serum 2 / intensité de l'immunoréactivité (OD), Serum 3 / intensité de l'immunoréactivité (OD), Serum 4 / intensité de l'immunoréactivité (OD), Serum 5 / intensité de l'immunoréactivité (OD), Serum 6 / intensité de l'immunoréactivité (OD), Serum 7 / intensité de l'immunoréactivité (OD), Serum 8 / intensité de l'immunoréactivité (OD), Serum 9 / intensité de l'immunoréactivité (OD), Serum 10 / intensité de l'immunoréactivité (OD), Serum 11 / intensité de l'immunoréactivité (OD), Serum 12 / intensité de l'immunoréactivité (OD), Serum 13 / intensité de l'immunoréactivité (OD), Serum 14 / intensité de l'immunoréactivité (OD), Serum 15 / intensité de l'immunoréactivité (OD), Serum 16 / intensité de l'immunoréactivité (OD), Serum 17 / intensité de l'immunoréactivité (OD), Serum 18 / intensité de l'immunoréactivité (OD), Serum 19 / intensité de l'immunoréactivité (OD), Serum 20 / intensité de l'immunoréactivité (OD), Serum 21 / intensité de l'immunoréactivité (OD), Serum 22 / intensité de l'immunoréactivité (OD), Serum 23 / intensité de l'immunoréactivité (OD), Serum 24 / intensité de l'immunoréactivité (OD), Serum 25 / intensité de l'immunoréactivité (OD), Serum 26 / intensité de l'immunoréactivité (OD), Serum 27 / intensité de l'immunoréactivité (OD), Serum 28 / intensité de l'immunoréactivité (OD), Serum 29 / intensité de l'immunoréactivité (OD), Serum 30 / intensité de l'immunoréactivité (OD), Serum 31 / intensité de l'immunoréactivité (OD), Serum 32 / intensité de l'immunoréactivité (OD), Serum 33: 500 ng coated per well; for intensité de l'immunoréactivité (OD), Serum 2: Serum 2, anti-nef positive; for intensité de l'immunoréactivité (OD), Serum 3: Serum 3, anti-nef positive; for intensité de l'immunoréactivité (OD), Serum 4: Serum 4, anti-nef positive; for intensité de l'immunoréactivité (OD), Serum 5: Serum 5, anti-nef positive; for intensité de l'immunoréactivité (OD), Serum 6: Serum 6, anti-nef positive; for intensité de l'immunoréactivité (OD), Serum 7: Serum 7, anti-nef positive; for intensité de l'immunoréactivité (OD), Serum 8: Serum 8, anti-nef positive; for intensité de l'immunoréactivité (OD), Serum 9: Serum 9, anti-nef positive; for intensité de l'immunoréactivité (OD), Serum 10: Serum 10, anti-nef positive; for intensité de l'immunoréactivité (OD), Serum 11: Serum 11, anti-nef positive; for intensité de l'immunoréactivité (OD), Serum 12: Serum 12, anti-nef positive; for intensité de l'immunoréactivité (OD), Serum 13: Serum 13, anti-nef positive; for intensité de l'immunoréactivité (OD), Serum 14: Serum 14, anti-nef positive; for intensité de l'immunoréactivité (OD), Serum 15: Serum 15, anti-nef positive; for intensité de l'immunoréactivité (OD), Serum 16: Serum 16, anti-nef positive; for intensité de l'immunoréactivité (OD), Serum 17: Serum 17, anti-nef positive; for intensité de l'immunoréactivité (OD), Serum 18: Serum 18, anti-nef positive; for intensité de l'immunoréactivité (OD), Serum 19: Serum 19, anti-nef positive; for intensité de l'immunoréactivité (OD), Serum 20: Serum 20, anti-nef positive; for intensité de l'immunoréactivité (OD), Serum 21: Serum 21, anti-nef positive; for intensité de l'immunoréactivité (OD), Serum 22: Serum 22, anti-nef positive; for intensité de l'immunoréactivité (OD), Serum 23: Serum 23, anti-nef positive; for intensité de l'immunoréactivité (OD), Serum 24: Serum 24, anti-nef positive; for intensité de l'immunoréactivité (OD), Serum 25: Serum 25, anti-nef positive; for intensité de l'immunoréactivité (OD), Serum 26: Serum 26, anti-nef positive; for intensité de l'immunoréactivité (OD), Serum 27: Serum 27, anti-nef positive; for intensité de l'immunoréactivité (OD), Serum 28: Serum 28, anti-nef positive; for intensité de l'immunoréactivité (OD), Serum 29: Serum 29, anti-nef positive; for intensité de l'immunoréactivité (OD), Serum 30: Serum 30, anti-nef positive; for intensité de l'immunoréactivité (OD), Serum 31: Serum 31, anti-nef positive; for intensité de l'immunoréactivité (OD), Serum 32: Serum 32, anti-nef negative control serum; for intensité de l'immunoréactivité (OD), Serum 33: Serum 33, anti-nef negative control serum

| Sequence | réaction avec sérum 1545 1/200, 10µl [1] | intensité de l'immunoréactivité (OD), Serum 1 (anticorps anti-nef) | intensité de l'immunoréactivité (OD), Serum 2 (anticorps anti-nef) | intensité de l'immunoréactivité (OD), Serum 3 (anticorps anti-nef) | intensité de l'immunoréactivité (OD), Serum 4 (anticorps anti-nef) | intensité de l'immunoréactivité (OD), Serum 5 (anticorps anti-nef) | intensité de l'immunoréactivité (OD), Serum 6 (anticorps anti-nef) | intensité de l'immunoréactivité (OD), Serum 7 (anticorps anti-nef) | intensité de l'immunoréactivité (OD), Serum 8 (anticorps anti-nef) | intensité de l'immunoréactivité (OD), Serum 9 (anticorps anti-nef) | intensité de l'immunoréactivité (OD), Serum 10 (anticorps anti-nef) | intensité de l'immunoréactivité (OD), Serum 11 (anticorps anti-nef) | intensité de l'immunoréactivité (OD), Serum 12 (anticorps anti-nef) | intensité de l'immunoréactivité (OD), Serum 13 (anticorps anti-nef) | intensité de l'immunoréactivité (OD), Serum 14 (anticorps anti-nef) | intensité de l'immunoréactivité (OD), Serum 15 (anticorps anti-nef) | intensité de l'immunoréactivité (OD), Serum 16 (anticorps anti-nef) | intensité de l'immunoréactivité (OD), Serum 17 (anticorps anti-nef) | intensité de l'immunoréactivité (OD), Serum 18 (anticorps anti-nef) | intensité de l'immunoréactivité (OD), Serum 19 (anticorps anti-nef) | also measured |
| --- | --- | --- | --- | --- | --- | --- | --- | --- | --- | --- | --- | --- | --- | --- | --- | --- | --- | --- | --- | --- | --- |
| XASRDLEKHGAITSSNTAATNAACAWLEAQEEEEZ [PF13] | tr | + (pour OD = 0,2 à 0,4) | - (pour une densité optique (OD) inférieure à 0,2) | +++ (pour OD = 0,8 à 2,0) | + (pour OD = 0,2 à 0,4) | - (pour une densité optique (OD) inférieure à 0,2) | - (pour une densité optique (OD) inférieure à 0,2) | ++ (pour OD = 0,4 à 0,8) | ++ (pour OD = 0,4 à 0,8) | ++ (pour OD = 0,4 à 0,8) | - (pour une densité optique (OD) inférieure à 0,2) | - (pour une densité optique (OD) inférieure à 0,2) | - (pour une densité optique (OD) inférieure à 0,2) | - (pour une densité optique (OD) inférieure à 0,2) | ++ (pour OD = 0,4 à 0,8) | - (pour une densité optique (OD) inférieure à 0,2) | - (pour une densité optique (OD) inférieure à 0,2) | - (pour une densité optique (OD) inférieure à 0,2) | - (pour une densité optique (OD) inférieure à 0,2) | - (pour une densité optique (OD) inférieure à 0,2) | réaction avec sérum CHA 1/300, 1µl ([1]; serum CHA diluted 1/300, spot 1µl of peptide at 2 mg/ml): tr; réaction avec sérum CHA 1/300, 2µl ([1]; serum CHA diluted 1/300, spot 2µl of peptide at 2 mg/ml): tr; intensité de l'immunoréactivité (OD), Serum 20 (anticorps anti-nef): - (pour une densité optique (OD) inférieure à 0,2); intensité de l'immunoréactivité (OD), Serum 21 (anticorps anti-nef): - (pour une densité optique (OD) inférieure à 0,2); intensité de l'immunoréactivité (OD), Serum 22 (anticorps anti-nef): - (pour une densité optique (OD) inférieure à 0,2); intensité de l'immunoréactivité (OD), Serum 23 (anticorps anti-nef): - (pour une densité optique (OD) inférieure à 0,2); intensité de l'immunoréactivité (OD), Serum 24 (anticorps anti-nef): - (pour une densité optique (OD) inférieure à 0,2); intensité de l'immunoréactivité (OD), Serum 25 (anticorps anti-nef): - (pour une densité optique (OD) inférieure à 0,2); intensité de l'immunoréactivité (OD), Serum 26 (anticorps anti-nef): - (pour une densité optique (OD) inférieure à 0,2); intensité de l'immunoréactivité (OD), Serum 27 (anticorps anti-nef): - (pour une densité optique (OD) inférieure à 0,2); intensité de l'immunoréactivité (OD), Serum 28 (anticorps anti-nef): - (pour une densité optique (OD) inférieure à 0,2); intensité de l'immunoréactivité (OD), Serum 29 (anticorps anti-nef): ++ (pour OD = 0,4 à 0,8); intensité de l'immunoréactivité (OD), Serum 30 (anticorps anti-nef): - (pour une densité optique (OD) inférieure à 0,2); intensité de l'immunoréactivité (OD), Serum 31 (anticorps anti-nef): - (pour une densité optique (OD) inférieure à 0,2); intensité de l'immunoréactivité (OD), Serum 32 (anticorps anti-nef): - (pour une densité optique (OD) inférieure à 0,2); intensité de l'immunoréactivité (OD), Serum 33 (anticorps anti-nef): - (pour une densité optique (OD) inférieure à 0,2) |
| XCYKLVPVEPDKVEEANKGENTSLLHPVSLHGMDDPEREVLEWRFDSRL AFHHVARELHPEYFKNCZ [PF17, protéine F HIV-1, séquence 141-205] | tr | +++ (pour OD = 0,8 à 2,0) | +++ (pour OD = 0,8 à 2,0) | + (pour OD = 0,2 à 0,4) | +++ (pour OD = 0,8 à 2,0) | +++ (pour OD = 0,8 à 2,0) | +++ (pour OD = 0,8 à 2,0) | - (pour une densité optique (OD) inférieure à 0,2) | - (pour une densité optique (OD) inférieure à 0,2) | - (pour une densité optique (OD) inférieure à 0,2) | ++ (pour OD = 0,4 à 0,8) | + (pour OD = 0,2 à 0,4) | - (pour une densité optique (OD) inférieure à 0,2) | ++ (pour OD = 0,4 à 0,8) | - (pour une densité optique (OD) inférieure à 0,2) | +++ (pour OD = 0,8 à 2,0) | ++ (pour OD = 0,4 à 0,8) | ++ (pour OD = 0,4 à 0,8) | +++ (pour OD = 0,8 à 2,0) | +++ (pour OD = 0,8 à 2,0) | nombre de sérums anti-nef positifs ayant réagi (anticorps anti-nef; ELISA, out of 31 anti-nef positive sera): 26; intensité de l'immunoréactivité (OD), Serum 20 (anticorps anti-nef): ++ (pour OD = 0,4 à 0,8); intensité de l'immunoréactivité (OD), Serum 21 (anticorps anti-nef): +++ (pour OD = 0,8 à 2,0); intensité de l'immunoréactivité (OD), Serum 22 (anticorps anti-nef): +++ (pour OD = 0,8 à 2,0); intensité de l'immunoréactivité (OD), Serum 23 (anticorps anti-nef): ++ (pour OD = 0,4 à 0,8); intensité de l'immunoréactivité (OD), Serum 24 (anticorps anti-nef): +++ (pour OD = 0,8 à 2,0); intensité de l'immunoréactivité (OD), Serum 25 (anticorps anti-nef): +++ (pour OD = 0,8 à 2,0); intensité de l'immunoréactivité (OD), Serum 26 (anticorps anti-nef): ++ (pour OD = 0,4 à 0,8); intensité de l'immunoréactivité (OD), Serum 27 (anticorps anti-nef): + (pour OD = 0,2 à 0,4); intensité de l'immunoréactivité (OD), Serum 28 (anticorps anti-nef): ++ (pour OD = 0,4 à 0,8); intensité de l'immunoréactivité (OD), Serum 29 (anticorps anti-nef): ++ (pour OD = 0,4 à 0,8); intensité de l'immunoréactivité (OD), Serum 30 (anticorps anti-nef): +++ (pour OD = 0,8 à 2,0); intensité de l'immunoréactivité (OD), Serum 31 (anticorps anti-nef): ++ (pour OD = 0,4 à 0,8); intensité de l'immunoréactivité (OD), Serum 32 (anticorps anti-nef): - (pour une densité optique (OD) inférieure à 0,2); intensité de l'immunoréactivité (OD), Serum 33 (anticorps anti-nef): - (pour une densité optique (OD) inférieure à 0,2) |
